Converted amounts (≈) assume the structure as drawn. Like-named read-outs stand apart in the source and are kept apart here.
Columns and labels:
S. aureus ATCC 13709 = test: MIC, S. aureus ATCC 13709; format: cell-based; settings: for MIC: Staphylococcus aureus
E. coli ATCC 25922 = test: MIC, E. coli ATCC 25922; format: cell-based; settings: for MIC: Escherichia coli
[1] = S. aureus, Alamar Blue read after overnight incubation at 35° C.
[2] = E. coli, Alamar Blue read after overnight incubation at 35° C.
[3] = ATCC13709, Table 16, new R4 substituents, read-out: SA MIC
[4] = ATCC25922, Table 16, new R4 substituents, EC8 not defined, read-out: EC8 MIC
[5] = ATCC13709, S. aureus, Alamar Blue read after overnight incubation at 35° C., read-out: MIC Sa
[6] = ATCC25922, E. coli, Alamar Blue read after overnight incubation at 35° C., read-out: MIC Ec

## CNc1cc(F)cc2c1[nH]c1nc(Oc3cncc(-c4cn[nH]c4)c3)nc(N3CC4C(N)C4C3)c12 (centres unmarked) [Compound 4.206]
S. aureus ATCC 13709; [1]
  MIC Sa: ≤0.5 µg/mL
E. coli ATCC 25922; [2]
  MIC Ec: 4 µg/mL (≈ 8.48 µM)

## CNc1cc(F)cc2c1[nH]c1nc(Cc3cnn(C)c3)nc(N3C[C@H]4C[C@@H]3C[C@H]4N)c12 [drawing 1734]
S. aureus ATCC 13709; Table 11, compounds wherein L = CH2
  SA MIC: 1 µg/mL
E. coli ATCC 25922; Table 11, L = CH2, EC8 not defined
  EC8 MIC: 8 µg/mL

## CNc1cc(F)cc2c1[nH]c1nc(Oc3cnc(C)nc3)nc(N3CCC[C@H]3CN)c12
S. aureus ATCC 13709; [3]
  MIC: 1 µg/mL (≈ 2.37 µM)
E. coli ATCC 25922; [4]
  MIC: 2 µg/mL (≈ 4.73 µM)

## CNc1cccc2c1[nH]c1nc(Sc3cnc4ccc[n+]([O-])c4c3)nc(N3CC[C@@H](C)[C@@H](N)C3)c12 [Compound 1.35]
S. aureus ATCC 13709; [5]
  MIC: ≤ 0.5 µg/mL
E. coli ATCC 25922; [6]
  MIC: 2 µg/mL (≈ 4.11 µM)

## CNc1cc(F)cc2c1[nH]c1nc(Oc3cncc([S+](C)[O-])c3)nc(N3CC4C(N)C4C3)c12 (centres unmarked) [Compound 4.351]
S. aureus ATCC 13709; [1]
  MIC Sa: ≤0.5 µg/mL
E. coli ATCC 25922; [2]
  MIC Ec: 2 µg/mL (≈ 4.28 µM)

## CNc1cc(F)cc2c1[nH]c1nc(Oc3ccc4cncnc4c3)nc(N3C[C@H]4C[C@@H]3C[C@H]4N)c12 [Compound 10.96]
S. aureus ATCC 13709; Table 18, Sa
  MIC Sa: ≤ 0.5 µg/mL
E. coli ATCC 25922; Table 18, Ec
  MIC Ec: ≤ 0.5 µg/mL

## NC1CN(c2nc(Sc3cnc4nccnc4c3)nc3[nH]c4ccccc4c23)C1 [Compound 1.05]
S. aureus ATCC 13709; [1]
  MIC Sa: >64 µg/mL
E. coli ATCC 25922; [2]
  MIC Ec: >64 µg/mL

## CNc1cc(F)cc2c1[nH]c1nc(Oc3cnc(C)nc3)nc(-c3ccc(C4(N)CC4)cc3)c12
S. aureus ATCC 13709; [3]
  MIC: ≤ 0.5 µg/mL
E. coli ATCC 25922; [4]
  MIC: 4 µg/mL (≈ 8.78 µM)

## CNc1cccc2c1[nH]c1nc(Oc3cncnc3)cc(N3CC4CCC(N)C4C3)c12 (centres unmarked) [Compound 3.15]
S. aureus ATCC 13709; [5]
  MIC: 1 µg/mL (≈ 2.41 µM)
E. coli ATCC 25922; [6]
  MIC: 8 µg/mL (≈ 19.3 µM)

## CNc1cccc2c1[nH]c1nc(Oc3cnc(C)nc3)cc(N3CC4C(C3)C4NCC3CC3)c12 (centres unmarked) [Compound 3.14]
S. aureus ATCC 13709; [5]
  MIC: ≤ 0.5 µg/mL
E. coli ATCC 25922; [6]
  MIC: 2 µg/mL (≈ 4.39 µM)

## CNc1cc(F)cc2c1[nH]c1nc(Oc3cnc(/C(C)=N/OC)nc3)nc(N3C[C@H]4C[C@@H]3C[C@H]4N)c12 [Compound 10.27]
S. aureus ATCC 13709; Table 18, Sa
  MIC Sa: ≤ 0.5 µg/mL
E. coli ATCC 25922; Table 18, Ec
  MIC Ec: ≤ 0.5 µg/mL

## CNc1cc(F)cc2c1[nH]c1nc(Oc3cnc(C)nc3)nc(N3CC4(CCCNC4)C3)c12 [Compound 4.149]
S. aureus ATCC 13709; [1]
  MIC Sa: ≤0.5 µg/mL
E. coli ATCC 25922; [2]
  MIC Ec: 2 µg/mL (≈ 4.46 µM)

## CNc1cc(F)cc2c1[nH]c1nc(Oc3cnc(C)nc3)nc(N(C)C3CNC3)c12 [Compound 4.134]
S. aureus ATCC 13709; [1]
  MIC Sa: >16 µg/mL
E. coli ATCC 25922; [2]
  MIC Ec: >16 µg/mL

## CNc1cccc2c1[nH]c1nc(Oc3cncnc3)cc(N3CCC4(CC4N)C3)c12 (centres unmarked) [Compound 3.41]
S. aureus ATCC 13709; [5]
  MIC: ≤ 0.5 µg/mL
E. coli ATCC 25922; [6]
  MIC: ≤ 0.5 µg/mL

## CNc1cc(F)cc2c1[nH]c1nc(Oc3cnc(C)nc3)nc(N3CCC(C(C)=O)C3)c12 (centres unmarked) [Compound 10.113]
S. aureus ATCC 13709; Table 18, Sa
  MIC Sa: ≤ 0.5 µg/mL
E. coli ATCC 25922; Table 18, Ec
  MIC Ec: ≤ 0.5 µg/mL

## CNc1cccc2c1[nH]c1nc(Oc3cnc(C)nc3)cc(N3CC4C(C3)C4NCCC#N)c12 (centres unmarked) [Compound 3.11]
S. aureus ATCC 13709; [5]
  MIC: ≤ 0.5 µg/mL
E. coli ATCC 25922; [6]
  MIC: 2 µg/mL (≈ 4.4 µM)

## CNc1cc(F)cc2c1[nH]c1nc(Oc3cncc(C(N)=O)c3)nc(N3CC4CC(N)C4C3)c12 (centres unmarked) [Compound 4.236]
S. aureus ATCC 13709; [1]
  MIC Sa: ≤0.5 µg/mL
E. coli ATCC 25922; [2]
  MIC Ec: ≤0.5 µg/mL

## CNc1cc(F)cc2c1[nH]c1nc(Oc3cnc4c(C)cnn4c3)nc(N3CC4C(N)C4C3)c12 (centres unmarked) [Compound 10.40]
S. aureus ATCC 13709; Table 18, Sa
  MIC Sa: ≤ 0.5 µg/mL
E. coli ATCC 25922; Table 18, Ec
  MIC Ec: ≤ 0.5 µg/mL

## CNc1cc(F)cc2c1[nH]c1nc(Sc3cnc4ccc[n+]([O-])c4c3)nc(N3CCC4(CC4N)C3)c12 (centres unmarked) [Compound 1.65]
S. aureus ATCC 13709; [1]
  MIC Sa: ≤0.5 µg/mL
E. coli ATCC 25922; [2]
  MIC Ec: ≤0.5 µg/mL

## CNc1cc(F)cc2c1[nH]c1nc(Oc3cnc(C)nc3)nc(N3CCCC3=O)c12
S. aureus ATCC 13709; [3]
  MIC: 1 µg/mL (≈ 2.45 µM)
E. coli ATCC 25922; [4]
  MIC: > 16 µg/mL

## CNc1cc(F)cc2c1[nH]c1nc(Oc3cncc(OC)c3)nc(N3CC4C(N)C4C3)c12 (centres unmarked) [Compound 4.164]
S. aureus ATCC 13709; [1]
  MIC Sa: ≤0.5 µg/mL
E. coli ATCC 25922; [2]
  MIC Ec: 1 µg/mL (≈ 2.3 µM)

## CNc1cccc2c1[nH]c1nc(Sc3cnc4ccc[n+]([O-])c4c3)nc(N3CC(N)C4(CC4)C3)c12 (centres unmarked) [Compound 1.40]
S. aureus ATCC 13709; [5]
  MIC: ≤ 0.5 µg/mL
E. coli ATCC 25922; [6]
  MIC: 1 µg/mL (≈ 2.06 µM)

From patent US10865216B2, “Tricyclic Gyrase inhibitors” (MERCK SHARP & DOHME CORP., priority 2012, dated 2020)
